Test results taken from patent US8697081B2, “Method of modulating neovascularization” (The Regents of the University of Michigan, priority 2008, dated 2014).

Experiments:
Type in all cases: cell-based
[1] = test system: Human umbilical vein endothelial cells; assay: VEGF/HGF-triggered vasculogenesis in 3-D fibrin gel, or growth in 2-D culture; conditions: 3-D culture, VEGF/HGF-stimulated, blebbistatin or nocodazole
Text: (§1) At sites of tissue damage, inflammation or neoplasia, fibrinogen is converted into a 3-D meshwork of fibrin fibrils that serve as a structural support for endothelial cells undergoing neovascularization (Chun et al. 2006. Cell, 125: 577-591; Hiraoka et al. 1998. Cell, 95: 365-377; Schafer and Werner. 2008. Nat. Rev. Mol. Cell Biol., 9: 628-638; Zhou et al. 2008. Genes Dev., 22: 1231-1243). This process can be recapitulated in vitro by embedding serum-supplemented human endothelial cells within a 3-D fibrin gel in the presence of the pro-angiogenic factors, VEGF and HGF. Human umbilical vein endothelial cells were isolated from umbilical cords by perfusion of the umbilical vein with type 3 collagenase (Worthington, Lakewood, N.J.) and cultured in Medium-199 (Invitrogen, Carlsbad, Calif.) with 20% human serum and 50 μg/ml endothelial cell growth supplement (ECGS; BD Biosciences, Franklin Lakes, N.J.). For 3-D culture, endothelial cells were suspended in a solution of thrombin and aprotinin (Sigma, St. Louis, Mo.) and mixed 1:1 with a solution of 6 mg/ml fibrinogen (Calbiochem, Gibbstown, N.J.). Vasculogenesis was triggered by treatment with 100 ng/ml VEGF, 50 ng/ml HGF (Genentech, San Francisco, Calif.). Fibronectin fibrillogenesis was tracked in 3-D by co-culture with human fibronectin (Sigma) labeled with Alexa-594 (Invitrogen).
In the presence of VEGF and HGF, endothelial cells i) underwent marked changes in cell morphology from spherical to elongated, ii) mobilized proteinases which degrade the surrounding fibrin, iii) assembled a pericellular meshwork of fibronectin fibrils, and iv) initiated proliferative and tubulogenic responses that result in the formation of an anastomosing network of neovessels over a 6 day culture period (Hiraoka, supra; Saunders et al., 2006. J Cell Biol. 175: 179-191; Zhou et al., 2008. Proc. Natl. Acad. Sci. USA, 97: 4052-4057). […] Cell, 125: 757-767; Saunders et al., supra; Tomasini-Johansson et al., 2001. J. Biol. Chem., 276: 23430-23439; Zhou et al, supra). Endothelial cells cultured atop—rather than embedded within—fibrin gels (herein referred to as 2-D culture) display distinct growth requirements from those observed in 3-D culture.
Taken together, cytoskeletal reorganization and contractile tension may serve as the biomechanical effectors that transmit structural and mechanical cues from the pericellular ECM to the nuclear envelope. VEGF/HGF-stimulated endothelial cells were treated with either (a) blebbistatin to inhibit myosin ATPase function, or (b) nocodazole to prevent microtubule assembly under 3-D culture conditions (Salpingidou et al., 2007. J. Cell Biol., 178: 897-904; Zhou et al., supra).

[2] = test system: Human umbilical vein endothelial cells; assay: Nuclear architecture (GFP-lamin A, emerin) and nuclear pore complex (NUP153) distribution; conditions: 3-D culture, VEGF/HGF-stimulated, blebbistatin or nocodazole
Text: as §1
As the 3-D-specific requirements for MT-MMPs and fibronectin matrix assembly correlate with changes in endothelial cell morphology, efforts were initiated to identify mechanistic routes whereby cell shape changes impact cell function. In particular, the impact of ECM remodeling on nuclear architecture was investigated. Nuclear architecture was tracked by either transfecting cells with a GFP-tagged form of the nuclear matrix filament, lamin A, or by immunostaining for the integral nuclear membrane protein, emerin (Dahl et al., 2008. Circ. Res., 102: 1307-1318; Glynn and Glover, 2005. Hum. Mol. Genet., 14: 2959-2969; Starr, 2009. J. Cell Sci., 122: 577-586; Stewart et al., 2007. Science, 318: 1408-1412). Under 2-D conditions, endothelial cell nuclei assumed an ellipsoid shape when cultured atop fibrin gels in the absence or presence of VEGF/HGF. In marked contrast, under 3-D conditions, endothelial cells cultured within fibrin gels in the absence of VEGF/HGF unexpectedly display a distorted morphology with multiple lamin A matrix and emerin infoldings and surface irregularities. Upon addition of VEGF/HGF, however, the nuclei of fibrin-embedded endothelial cells undergo a dramatic, and 3-D-specific, remodeling to assume a more classic, ovoid morphology. Three-dimensional reconstructions of DAPI-stained nuclei confirm that nuclear architecture transitions between multi-lobed and smooth elliptical shapes in the absence or presence, respectively, of VEGF/HGF.
Nuclear matrix architecture controls the distribution of the nuclear pore complexes that regulate the trafficking of protein and RNA across the nuclear envelope (Goldman et al., 2004. Proc. Natl. Acad. Sci. USA, 101: 8963-8968; Hawryluk-Gara et al., 2005. Mol. Biol. Cell, 16: 2382-2394; Liu et al., 2007. J. Cell. Biol., 178: 785-798). As such, the localization of nuclear pores was assessed in intact cells by monitoring the localization of the component protein, NUP153. In 3-D culture, unstimulated endothelial cells accumulate NUP153-containing pore complexes at nuclear membrane invaginations. In contrast, the nuclei of VEGF/HGF-stimulated endothelial cells display a uniform distribution of pore complexes in nuclear membranes.
To determine the roles of MMP-dependent proteolysis and fibronectin matrix assembly in mediating nuclear shape and nuclear pore complex changes, fibrin-embedded endothelial cells were stimulated with VEGF/HGF in the presence of FUD or GM6001. […]

[3] = test system: Human umbilical vein endothelial cells; assay: Chromatin organization (GFP-H2B, H3K9me3) and histone H3/H4 acetylation; conditions: 3-D culture, VEGF/HGF-stimulated, blebbistatin or nocodazole
Text: as §1
Yet, multi-lobed nuclei and anomalous nuclear pore complex distributions can be observed in laminopathies, a pleiotropic series of genetic disorders wherein mutations in lamin or emerin impact chromatin organization, histone modifications, and transcriptional activity (Csoka et al., 2004. Aging Cell, 3: 235-243; Dechat et al., 2008. Genes Dev, 22: 832-853; Dillon, 2008. Dev Cell, 15: 182-186; Malhas et al., 2007. J. Cell Biol., 176: 593-603; Mendjan et al., 2006. Mol. Cell, 21: 811-823; Shumaker et al., 2006. Proc. Natl. Acad. Sci. USA, 103: 8703-8708; Tang et al., 2008. J. Cell Sci., 121: 1014-1024). To determine whether VEGF/HGF-dependent changes in nuclear shape similarly affect chromatin structure/function, chromatin packaging was tracked at the single-endothelial cell level by monitoring GFP-tagged histone H2B or pericentromeric constitutive heterochromatin localization. […] heterochromatin localization was visualized by immunostaining for trimethylated lysine 9 of histone H3 (H3K9me3) (Shumaker, supra; Tang, supra).
Histone acetylation can be regulated by chromatin positioning within the nucleus (Finlan et al., 2008. PLoS Genet, 4: e1000039; Somech et al., 2005. J. Cell Sci., 118: 4017-4025). Thus, the acetylation status of histones H3 and H4 was assessed as functional markers of changes in chromatin organization. […]

[4] = test system: Human umbilical vein endothelial cells; assay: Cytoskeletal organization (F-actin, β-tubulin, vimentin) and isometric tension/contractile force; conditions: 3-D culture, VEGF/HGF-stimulated, blebbistatin or nocodazole
human endothelial cells [5] = assay: Fn matrix assembly by endothelial cells in 3-D fibrin gel, confocal laser microscopy; conditions: growth factor cocktail, FUD or Del29 250 nM, L8 or 9D2 100 μg/ml, 70 kDa Fn fragment 75 μg/ml
Description: Endothelial cells were isolated from human umbilical cord veins by collagenase digestion and cultured in Medium 199 (Gibco) containing 20% human serum, 50 μg/ml endothelial cell growth supplement (BD Biosciences), 100 U/ml penicillin, and 100 μg/ml streptomycin (Hiraoka et al. 1998. Cell, 95(3): 365-377). For 2-D/3-D culture, endothelial cell monolayers (no later than third passage) were suspended by mild trypsinization and dispersed within or plated atop fibrin (3 mg/ml) or collagen (2.2 mg/ml) gels (prepared as described in Hiraoka, supra, and Hotary et al. 2003. Cell, 114(1): 33-45), and stimulated with a cocktail of growth factors including 100 ng/ml human vascular endothelial growth factor (Genentech), 50 ng/ml human hepatocyte growth factor (Genentech), 10 ng/ml human TGFα (Biosource), 0.5 ng/ml TGFβ1 (R and D Systems), and 100 μg/ml heparin (Sigma). In selected experiments, endothelial cell spheroids were prepared and suspended in 3-D fibrin gels.
The effect of Fn matrix assembly, or lack thereof, on endothelial cell function during neovascularization was assessed. Human serum was depleted of Fn by gelatin-sepharose affinity chromatography (Amersham) and supplemented with either 20 μg/ml of human plasma Fn (Sigma) or FITC-labeled Fn. […]
(Chernousov et al. 1991. J. Biol. Chem., 266(17): 10851-10858; Tomasini-Johansson et al. 2001. J. Biol. Chem., 276(26): 23430-23439; Mao and Schwarzbauer. 2005. Matrix Biol., 24(6): 389-399; and Tomasini-Johansson et al. 2006. Matrix Biol., 25(5): 282-293). […] Cell number in 3-D cultures was determined by hemacytometry after dissolving gels with 2 mg/ml bacterial collagenase (Worthington) while the number of patent tubules was determined in randomly selected cross-sections. Fn matrix assembly and cell morphology were monitored by confocal laser microscopy. To examine cell migration, endothelial cells were embedded in a 100 μl fibrin gel for 2 hours, then placed within a 500 μl gel for 8 days in the presence of Del29, FUD, control IgG, or L8, after which migration from the inner gel was assessed. […]

human endothelial cells [6] = assay: F-actin cytoskeletal organization, activated β1 integrin and vinculin distribution (phalloidin, confocal); conditions: 3-D fibrin gel, 2 days, FUD or Del29 peptide
Description: To further study the effects of Fn matrix inhibition, additional cytological processes associated with angiogenesis were examined. Endothelial cells were cultured within 3-D or 2-D fibrin gels in the presence of the FUD or Del 29 peptides for 2 days. F-actin cytoskeletal organization was monitored following staining with Alexa 488-conjugated phalloidin. Cells also were stained with an antibody against activated β1 integrin or transfected with a GFP-tagged vinculin expression vector (pRK-vinculin-EGFP) to study distribution. Following counterstaining with Alexa 594-labeled phalloidin, fluorescence was monitored by confocal laser microscopy.
In the absence of Fn fibrillogenesis, an impaired ability of embedded endothelial cells to generate myosin-dependent forces and increase cytoplasmic stiffness was predicted to affect both Fn unfolding, as well as the ability of the cells to properly register the mechanical properties of the surrounding substratum (Wu et al. 1995. Cell, 83(5): 715-724; Zhong et al. 1998. J. Cell Biol., 141(2): 539-551; Baneyx et al. 2002. Proc. Natl. Acad. Sci. USA, 99(8): 5139-5143; Discher et al. 2005. Science, 310(5751): 1139-1143; Engler, supra; and Yoneda, supra). As such, the rheologic and functional characteristics of endothelial cells were assessed in the presence of the specific myosin ATPase inhibitor, blebbistatin. […]

Row | Compound | endothelial cell 3-D tubulogenesis [1] | nuclear shape and nuclear pore distribution [2] | chromatin distribution [3] | levels of acetylated histones H3 and H4 [3] | contractile force exerted on the 3-D ECM [4] | Fn matrix assembly (Fn polymerization) (human endothelial cells [5]) | stress fiber formation (F-actin phalloidin staining) (human endothelial cells [6])
1 | COC(=O)Nc1nc2ccc(C(=O)c3cccs3)cc2[nH]1 [nocodazole] | completely inhibit | multi-lobed nuclei with perturbations in nuclear pore distribution | chromatin condensations at the nuclear periphery with increased interchromatin space | decreased levels | impairing | – | –
2 | Del29: control peptide wherein FUD residue 29 is deleted to abrogate Fn binding (KDQSPLAGESGETEYITEVYGNQQNPVDDKKLPNETGFSGNMVETEDT) | – | – | – | – | – | did not negatively impact | well-organized stress fibers
